Measured values from article PMC7443318 (Journal of medicinal chemistry, 2020).
Entries after “also recorded” stand apart in the source; their conditions may differ.

Columns and labels:
mA3AR = target: T1, mA3AR (Mus musculus, UniProt Q61618)
T1 sequence (Q61618 1-319): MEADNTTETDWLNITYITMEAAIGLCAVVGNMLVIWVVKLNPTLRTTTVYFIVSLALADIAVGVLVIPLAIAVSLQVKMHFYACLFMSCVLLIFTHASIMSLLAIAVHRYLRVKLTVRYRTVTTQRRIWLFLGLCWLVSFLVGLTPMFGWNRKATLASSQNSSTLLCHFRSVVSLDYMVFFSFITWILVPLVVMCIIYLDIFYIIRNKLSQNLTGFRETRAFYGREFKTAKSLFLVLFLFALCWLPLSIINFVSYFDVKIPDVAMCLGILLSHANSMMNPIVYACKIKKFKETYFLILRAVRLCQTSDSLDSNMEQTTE

hA3AR [1] = target: T2, hA3AR (Homo sapiens, UniProt P0DMS8)
T2 sequence (P0DMS8 1-318): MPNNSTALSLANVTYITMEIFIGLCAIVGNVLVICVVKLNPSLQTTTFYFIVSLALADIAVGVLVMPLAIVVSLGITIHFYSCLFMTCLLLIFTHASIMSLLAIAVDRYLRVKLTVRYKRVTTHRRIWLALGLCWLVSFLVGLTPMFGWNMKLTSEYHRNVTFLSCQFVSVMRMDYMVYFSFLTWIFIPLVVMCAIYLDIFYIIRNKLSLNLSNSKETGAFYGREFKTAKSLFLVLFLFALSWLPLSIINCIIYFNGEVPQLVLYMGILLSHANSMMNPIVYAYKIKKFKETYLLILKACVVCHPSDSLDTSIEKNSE

hA3AR [2] = target: T2, hA3AR; settings: fixed concentration of 15 (10 μM), Figure 1C
[3] = tested on: 45 receptors, channels and transporters; experiment: Off-target screen in radioligand binding assays; settings: Table S1
[4] = tested on: wild-type C57BL/6 (WT) or A3AR-KO mice; experiment: Mouse model of A3AR-induced hypothermia; type: in vivo
[5] = target: translocator protein, TSPO (Rattus norvegicus, UniProt P16257); experiment: Off-target radioligand binding, TSPO
translocator protein, TSPO, sequence (P16257 whole entry): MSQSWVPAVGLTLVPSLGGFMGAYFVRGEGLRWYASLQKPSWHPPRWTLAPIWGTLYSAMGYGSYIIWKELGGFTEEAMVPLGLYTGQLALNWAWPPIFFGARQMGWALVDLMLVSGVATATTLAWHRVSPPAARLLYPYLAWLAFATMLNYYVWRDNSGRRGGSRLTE

Structure (SMILES): Oc1ccc(CCNc2nc(C#Cc3ccccc3)nc3c2ncn3[C@H]2[C@H](O)[C@H](O)[C@@H]3C[C@@H]32)cc1 [Compound 10, (1R,2R,3S,4R,5S)-4-(6-((4-Hydroxyphenethyl)amino)-2-(phenylethynyl)-9H-purin-9-yl)bicyclo[3.1.0]hexane-2,3-diol]
- increase of mA3AR affinity compared to 8 (mA3AR): 6 fold

Structure (SMILES): Oc1ccc(CCNc2nc(C#Cc3ccccc3)nc3c2ncn3[C@H]2[C@H](O)[C@H](O)[C@@H]3C[C@@H]32)cc1F [Compound 11, (1R,2R,3S,4R,5S)-4-(6-((3-Fluoro-4-hydroxyphenethyl)amino)-2-(phenylethynyl)-9H-purin-9-yl)bicyclo[3.1.0]hexane-2,3-diol]
- increase of hA3AR affinity compared to 8 (hA3AR [1]): 2 fold

Structure (SMILES): COc1ccc(CCNc2nc(C#Cc3ccccc3)nc3c2ncn3[C@H]2[C@H](O)[C@H](O)[C@@H]3C[C@@H]32)cc1O [Compound 14, (1R,2R,3S,4R,5S)-4-(6-((3-Hydroxy-4-methoxyphenethyl)amino)-2-(phenylethynyl)-9H-purin-9-yl)bicyclo[3.1.0]hexane-2,3-diol]
- reduction of mA3AR affinity compared to 15 (mA3AR): 7 fold

Structure (SMILES): COc1cc(CCNc2nc(C#Cc3ccccc3)nc3c2ncn3[C@H]2[C@H](O)[C@H](O)[C@@H]3C[C@@H]32)ccc1O [Compound 15, (1R,2R,3S,4R,5S)-4-(6-((4-Hydroxy-3-methoxyphenethyl)amino)-2-(phenylethynyl)-9H-purin-9-yl)bicyclo[3.1.0]hexane-2,3-diol]
- Antagonism of hA3AR activation by Cl-IB-MECA 38 in cAMP assay (hA3AR [2]): greatly inhibited the activation of hA3AR by Cl-IB-MECA; also recorded: shifted the concentration-response curve of Cl-IB-MECA 38 rightward
- Interaction with other GPCRs [3]: did not interact
- increase of mA3AR affinity compared to 8 (mA3AR): ~ 27 fold
- increase of hA3AR affinity compared to 8 (hA3AR [1]): ~ 2 fold
- Effect of pretreatment on hypothermic effect of full agonist 39 ([4]; 3 mg/kg or 10 mg/kg 15, 30 min prior to 39 (3 mg/kg)): did not significantly attenuate
- Effect on core body temperature (Tb) ([4]; 3 mg/kg, i.p., WT mice (Figure 2B)): only weak hypothermia
- Effect on core body temperature (Tb) in ADORA3−/− mice ([4]; 10 mg/kg, i.p., ADORA3−/− mice, versus WT (Figure 2A)): greatly attenuated
- Effect on core body temperature (Tb) ([4]; 10 mg/kg, i.p., wild-type C57BL/6 mice (Figure 2A)): lowered core body temperature
- Period over which in vivo agonism was maintained ([4]; mouse): > 2 h

Structure (SMILES): O[C@@H]1[C@H](O)[C@@H]2C[C@@H]2[C@H]1n1cnc2c(NCCc3cccc(Cl)c3)nc(C#Cc3ccc(Cl)s3)nc21 [Compound 26, (1R,2R,3S,4R,5S)-4-(6-((3-Chlorophenethyl)amino)-2-((5-chlorothiophen-2-yl)ethynyl)-9H-purin-9-yl)bicyclo[3.1.0]hexane-2,3-diol]
- Ki [5]: ~350 nM

Structure (SMILES): COc1cc(CCNc2nc(C#Cc3ccc(Cl)s3)nc3c2ncn3[C@H]2[C@H](O)[C@H](O)[C@@H]3C[C@@H]32)ccc1O [Compound 29, (1R,2R,3S,4R,5S)-4-(2-((5-Chlorothiophen-2-yl)ethynyl)-6-((4-hydroxy-3-methoxyphenethyl)amino)-9H-purin-9-yl)bicyclo[3.1.0]hexane-2,3-diol]
- reduction of mA3AR affinity compared to 15 (mA3AR): 4 fold

Structure (SMILES): O[C@@H]1[C@H](O)[C@@H]2C[C@@H]2[C@H]1n1cnc2c(N[C@H]3C[C@@H]3c3ccccc3)nc(C#Cc3ccc(Cl)s3)nc21 [Compound 31, (1R,2R,3S,4R,5S)-4-(2-((5-Chlorothiophen-2-yl)ethynyl)-6-(((1S,2R)-2-phenylcyclopropyl)amino)-9H-purin-9-yl)bicyclo[3.1.0]hexane-2,3-diol]
- reduction of hA3AR affinity by cyclopropyl constraint of the N6-2-phenylethyl moiety (hA3AR [1]; compared to N6-2-phenylethyl analogue): ~ 10 fold

Structure (SMILES): CNC(=O)[C@@]12C[C@@H]1[C@@H](n1cnc3c(NCc4cccc(Cl)c4)nc(C#Cc4ccc(F)c(F)c4)nc31)[C@H](O)[C@@H]2O [Compound 39, (1S,2R,3S,4R,5S)-4-(6-((3-chlorobenzyl)amino)-2-((3,4-difluorophenyl)-ethynyl)-9H-purin-9-yl)-2,3-dihydroxy-N-methylbicyclo[3.1.0]hexane-1-carboxamide, reference compound]
- Hypothermic effect ([4]; 3 mg/kg, mice): pronounced hypothermic effect
